{
  "source": "paper PMC2881055",
  "about": "“Endocytic pathways mediating oligomeric Aβ42 neurotoxicity” (Molecular Neurodegeneration, 2010)",
  "key": {"N2A cells [1]": {"system": "N2A cells", "parameters": "lethality to N2A cells: dose or concentration left out as unconfirmed", "conditions": "cited from earlier work"}, "N2A cells [2]": {"system": "N2A cells", "assay": "oAβ42-induced neurotoxicity in N2A cells, with inhibitor or siRNA (CellTiter-Glo ATP assay)", "type": "cell-based, mouse", "parameters": "effect on Aβ42 toxicity: dose or concentration left out as unconfirmed", "description": "Small interfering RNA (siRNA) for the clathrin heavy chain (CLTC, SMARTpool L-004001-00-0005) and control Non-Targeting siRNA were purchased from Dharmacon. Cells were transfected at 20 pmol siRNA in 24-well culture plates using LipofectAmine 2000 according to vendor's recommended transfection protocol. A second transfection was done the next day. These transfected cells were then split and seeded on to 96-well plate in MEM with 10% FBS. 48 hours post-transfection, these cells were treated with oAβ42 for 24 hours."}, "neuroblastoma cell line": {"system": "neuroblastoma cell line", "parameters": "method as in PMID 3796890", "conditions": "cited from earlier work"}, "N2A cells [3]": {"system": "N2A cells", "description": "Mouse neuroblastoma, N2A cells (ATCC) were maintained in MEM (ATCC) supplemented with 10% FBS, 2 mM L-glutamine, 100 U/ml of penicillin, 100 ug/ml of streptomycin, as previously described. 5000 cells per well were plated on to 96-well plates 24 hours prior to treatment to allow attachment. Cells were then treated […] oAβ42 in DMEM medium without phenol red and with 1% N2 supplement (Invitrogen). At the end of the experiment (24 hours post-treatment), cell viability was assessed by relative cellular ATP levels using CellTiter-Glo assay kit (Promega) according to the manufacture's instruction. Statistical significance was established at p < 0.01 by One-way ANOVA with Tukey test for comparison in different groups.\nN2A cells were treated with pharmacological inhibitors that block specific steps during endocytosis. […] Chlorpromazine (2 mM), genistein ([…]), PP2 (1 mM) were added to cell cultures at indicated concentrations 1 hr before oAβ42 treatment in DMEM with 1% N2 supplement. The final concentration of vehicle (DMSO) was 0.05% in all cultures."}, "[4]": {"system": "cultured hippocampal neurons", "conditions": "cited from earlier work", "from_the_text": "(§1) Dynamin mediates both clathrin-dependent and -independent endocytosis (for review, [76]). We first used two pharmacological inhibitors to block the dynamin-dependent endocytic pathway, genistein (a general tyrosine kinase inhibitor) and PP2 (a Src family tyrosine kinase inhibitor). […] The result was consistent with previous reports that this agent protected from Aβ induced toxicity in cultured hippocampal neurons and SH-SY5Y cells."}, "SH-SY5Y cells": {"system": "SH-SY5Y cells", "conditions": "cited from earlier work", "from_the_text": "as §1"}, "N2A cells [5]": {"system": "N2A cells", "conditions": "co-cultures of primary neurons and glia, and Neuro-2A cells (N2A); cited from earlier work", "from_the_text": "Here we focus mainly on endocytic pathways in relation to oAβ42 toxicity in N2A cells."}},
  "data": [
    {"compound": "CC(C)(C)n1nc(-c2ccc(Cl)cc2)c2c(N)ncnc21", "note": "[PP2]", "values": [
      {"measurement": "lethality to N2A cells", "setting": "N2A cells [1]", "value": "lethal"},
      {"measurement": "effect on Aβ42 toxicity", "setting": "N2A cells [2]; PP2 pre-treatment 1 hr before oAβ42, 24 hours, data not shown", "value": "decreased Aβ42 toxicity though to a lesser extent than genistein"}
    ]},
    {"compound": "CN(C)CCCN1c2ccccc2Sc2ccc(Cl)cc21", "note": "[chlorpromazine]", "values": [
      {"measurement": "effect on cells at higher concentration", "setting": "neuroblastoma cell line; 10^-4-10^-3 M", "value": "killed cells"},
      {"measurement": "effect on Ca++-mediated toxicity at lower concentration", "setting": "neuroblastoma cell line; 10^-6-10^-5 M", "value": "inhibited Ca^++-mediated toxicity"},
      {"measurement": "toxicity to N2A cells", "setting": "N2A cells [3]", "value": "toxic"},
      {"measurement": "cell viability retained", "setting": "N2A cells [3]; N2A cells, 2 mM chlorpromazine, ATP-based CellTiter-Glo", "value": 90, "unit": "%"},
      {"measurement": "effect on oAβ42 neurotoxicity", "setting": "N2A cells [2]; 2 mM chlorpromazine added 1 hr before oAβ42, 24 hours, data not shown", "value": "failed to block"}
    ]},
    {"compound": "O=c1c(-c2ccc(O)cc2)coc2cc(O)cc(O)c12", "note": "[genistein]", "values": [
      {"measurement": "protection from Aβ induced toxicity", "setting": "[4]", "value": "protected"},
      {"measurement": "protection from Aβ induced toxicity", "setting": "SH-SY5Y cells", "value": "protected"},
      {"measurement": "IC50", "setting": "N2A cells [1]; read-out: IC50, inhibition of growth of N2A cells, dose-dependent", "value": 18, "unit": "µM"},
      {"measurement": "effect on oAβ42-induced toxicity", "setting": "N2A cells [2]; pre-treated with 10 mM genistein for 1 hour, 10 μM oAβ42 for 24 hours, p < 0.01", "value": "significantly inhibited"}
    ]},
    {"compound": "oAβ42: Oligomer preparation of recombinant Aβ42 (rPeptide), formed in DMSO/Ham's F12 at 4°C for 24 hours", "values": [
      {"measurement": "neurotoxicity of the oAβ42 preparation", "setting": "N2A cells [5]", "value": "causes neurotoxicity"}
    ]}
  ]
}
